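Five concentrations, 48 hours, 96-well plates. GI50 = concentration required for 50% inhibition of growth.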 The source made the active and inactive calls. Rule as the data show it: active = GI50 up to about 1.1 µM and inactive = higher.
What was measured:
Test in all cases: NCI-60 cell line screen, 48 h
UACC-62 = test system: UACC-62
SNB-75 = test system: SNB-75
PC-3 = test system: PC-3
SK-MEL-5 = test system: SK-MEL-5
OVCAR-5 = test system: OVCAR-5
M14 = test system: M14
SK-MEL-28 = test system: SK-MEL-28
HT-29 = test system: HT-29
OVCAR-4 = test system: OVCAR-4
HCT-116 = test system: HCT-116
NCI-H522 = test system: NCI-H522
RXF 393 = test system: RXF 393
OVCAR-3 = test system: OVCAR-3
A498 = test system: A498
DU-145 = test system: DU-145
NCI/ADR-RES = test system: NCI/ADR-RES
SF-295 = test system: SF-295
TK-10 = test system: TK-10
Malme-3M = test system: Malme-3M
RPMI-8226 = test system: RPMI-8226

Measured: GI50

Cc1ccc2c(c1)[nH]c(=S)n2C=C1C(=O)CC(C)(C)CC1=O
inactive: UACC-62 > 100 µM | SNB-75 > 100 µM | PC-3 > 100 µM | SK-MEL-5 > 100 µM | OVCAR-5 > 100 µM | M14 > 100 µM | SK-MEL-28 > 100 µM | HT-29 > 100 µM | OVCAR-4 > 100 µM | HCT-116 > 100 µM | NCI-H522 > 100 µM | RXF 393 > 100 µM | OVCAR-3 > 100 µM | A498 > 100 µM | DU-145 > 100 µM | NCI/ADR-RES > 100 µM | SF-295 > 100 µM | TK-10 > 100 µM

COC(=O)c1cnn2c1ccc1ccccc12
inactive: UACC-62 > 100 µM | Malme-3M > 100 µM | SNB-75 > 100 µM | PC-3 > 100 µM | SK-MEL-5 > 100 µM | OVCAR-5 > 100 µM | M14 > 100 µM | SK-MEL-28 > 100 µM | HT-29 > 100 µM | HCT-116 > 100 µM | NCI-H522 > 100 µM | RXF 393 > 100 µM | RPMI-8226 > 100 µM | OVCAR-3 > 100 µM | A498 > 100 µM | DU-145 > 100 µM | NCI/ADR-RES > 100 µM | SF-295 > 100 µM | TK-10 > 100 µM

CCOC(=O)NC(Nc1ccc([N+](=O)[O-])cc1)(C(F)(F)F)C(F)(F)F
inactive: UACC-62 95.1 µM | Malme-3M > 100 µM | SNB-75 > 100 µM | PC-3 53.1 µM | SK-MEL-5 81.3 µM | OVCAR-5 > 100 µM | M14 60.4 µM | SK-MEL-28 > 100 µM | HT-29 > 100 µM | HCT-116 59.8 µM | NCI-H522 25.1 µM | RXF 393 12 µM | RPMI-8226 99.3 µM | OVCAR-3 65.8 µM | A498 91.2 µM | DU-145 > 100 µM | NCI/ADR-RES 30.8 µM | SF-295 > 100 µM | TK-10 69.8 µM

CC(=O)NC1C(OCc2ccccc2)OC(CO)C(O)C1OCC(=O)NC(C)C(=O)NC(CCC(=O)Nc1ccc2c(c1)CN1C(=O)c3ccccc3C1=N2)C(N)=O (stereo not drawn)
inactive: UACC-62 > 100 µM | Malme-3M > 100 µM | SNB-75 > 100 µM | PC-3 > 100 µM | SK-MEL-5 > 100 µM | OVCAR-5 > 100 µM | M14 > 100 µM | SK-MEL-28 > 100 µM | HT-29 > 100 µM | OVCAR-4 > 100 µM | HCT-116 > 100 µM | RXF 393 > 100 µM | RPMI-8226 > 100 µM | OVCAR-3 > 100 µM | A498 > 100 µM | DU-145 > 100 µM | NCI/ADR-RES > 100 µM | SF-295 > 100 µM | TK-10 > 100 µM

COc1ccc(C2(c3ccc(OC)cc3)OC(=O)c3cccc4cccc2c34)cc1
inactive: UACC-62 5.28 µM | Malme-3M 5.37 µM | PC-3 2.16 µM | SK-MEL-5 5.25 µM | OVCAR-5 > 100 µM | M14 3.78 µM | HT-29 2.4 µM | OVCAR-4 4.85 µM | HCT-116 3.71 µM | RXF 393 15.9 µM | RPMI-8226 3.12 µM | OVCAR-3 4.81 µM | A498 > 100 µM | DU-145 > 100 µM | NCI/ADR-RES 2.72 µM | SF-295 3.97 µM | TK-10 5.94 µM

COC(=O)[C@H](COC(=O)/C=C/c1ccc(OC(C)=O)c(OC(C)=O)c1)NC(=O)/C=C/c1ccc(OC(C)=O)c(OC(C)=O)c1
inactive: UACC-62 15 µM | Malme-3M 5.09 µM | SNB-75 14.6 µM | PC-3 15 µM | SK-MEL-5 16.4 µM | OVCAR-5 23.4 µM | M14 21.2 µM | SK-MEL-28 30.5 µM | HT-29 22.3 µM | OVCAR-4 17.4 µM | HCT-116 16.7 µM | RXF 393 28.5 µM | RPMI-8226 > 100 µM | OVCAR-3 16.4 µM | A498 39.3 µM | DU-145 14.1 µM | NCI/ADR-RES 33.7 µM

COC(=O)c1ccc(/C=N/c2ccc(S(N)(=O)=O)cc2)cc1
inactive: UACC-62 60.3 µM | Malme-3M 85.5 µM | SNB-75 58.9 µM | PC-3 > 100 µM | SK-MEL-5 > 100 µM | OVCAR-5 > 100 µM | M14 53.5 µM | SK-MEL-28 > 100 µM | HT-29 > 100 µM | OVCAR-4 97.9 µM | HCT-116 37.1 µM | RXF 393 > 100 µM | RPMI-8226 30.9 µM | OVCAR-3 87.1 µM | A498 > 100 µM | DU-145 > 100 µM | NCI/ADR-RES 58.5 µM | SF-295 > 100 µM | TK-10 > 100 µM
